Assay results published in PMC6199744, “Development of Chemical Proteomics for the Folateome and Analysis of the Kinetoplastid Folateome” (ACS Infectious Diseases, 2018).
Like-named read-outs stand apart in the source and are kept apart here.

What was measured:
Assay type in all cases: binding
[1] = target: T1, HeLa cell extract proteins (Homo sapiens, UniProt O00746)
T1 construct: endogenous in cells; host or cells: HeLa cell extract
T1 sequence (O00746 29-187): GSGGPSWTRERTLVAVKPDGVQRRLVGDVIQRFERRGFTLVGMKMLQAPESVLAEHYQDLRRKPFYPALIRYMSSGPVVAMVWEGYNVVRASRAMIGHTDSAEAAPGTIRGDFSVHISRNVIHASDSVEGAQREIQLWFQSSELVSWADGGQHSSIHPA

[2] = target: T2, HeLa cell extract proteins (Homo sapiens, UniProt O43143)
T2 construct: endogenous in cells; host or cells: HeLa cell extract

[3] = target: T3, HeLa cell extract proteins (Homo sapiens, UniProt P00966)
T3 construct: endogenous in cells; host or cells: HeLa cell extract
T3 sequence (P00966 1-412): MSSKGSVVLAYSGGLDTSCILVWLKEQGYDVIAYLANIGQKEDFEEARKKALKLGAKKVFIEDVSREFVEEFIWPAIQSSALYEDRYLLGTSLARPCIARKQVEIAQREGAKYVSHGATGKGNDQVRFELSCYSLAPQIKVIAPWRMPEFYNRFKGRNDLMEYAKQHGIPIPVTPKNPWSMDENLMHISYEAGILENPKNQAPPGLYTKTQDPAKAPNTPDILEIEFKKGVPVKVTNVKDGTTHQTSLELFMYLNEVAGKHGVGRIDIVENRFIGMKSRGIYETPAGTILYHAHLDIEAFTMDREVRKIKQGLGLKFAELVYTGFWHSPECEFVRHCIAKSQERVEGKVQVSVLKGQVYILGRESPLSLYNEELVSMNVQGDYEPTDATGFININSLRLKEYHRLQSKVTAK

[4] = target: T4, HeLa cell extract proteins (Homo sapiens, UniProt P25789)
T4 construct: endogenous in cells; host or cells: HeLa cell extract
T4 sequence (P25789 1-261): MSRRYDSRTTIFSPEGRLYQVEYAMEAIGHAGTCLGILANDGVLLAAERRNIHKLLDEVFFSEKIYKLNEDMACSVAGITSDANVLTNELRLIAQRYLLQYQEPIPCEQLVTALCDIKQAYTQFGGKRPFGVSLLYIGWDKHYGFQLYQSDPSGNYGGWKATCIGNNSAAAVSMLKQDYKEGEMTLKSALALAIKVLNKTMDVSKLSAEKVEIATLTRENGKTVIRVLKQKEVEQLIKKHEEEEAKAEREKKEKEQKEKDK

[5] = target: T5, HeLa cell extract proteins (Homo sapiens, UniProt P41091)
T5 construct: endogenous in cells; host or cells: HeLa cell extract

[6] = target: T6, HeLa cell extract proteins (Homo sapiens, UniProt P61769)
T6 construct: endogenous in cells; host or cells: HeLa cell extract

[7] = target: T7, HeLa cell extract proteins (Homo sapiens, UniProt Q13155)
T7 construct: endogenous in cells; host or cells: HeLa cell extract
T7 sequence (Q13155 1-320): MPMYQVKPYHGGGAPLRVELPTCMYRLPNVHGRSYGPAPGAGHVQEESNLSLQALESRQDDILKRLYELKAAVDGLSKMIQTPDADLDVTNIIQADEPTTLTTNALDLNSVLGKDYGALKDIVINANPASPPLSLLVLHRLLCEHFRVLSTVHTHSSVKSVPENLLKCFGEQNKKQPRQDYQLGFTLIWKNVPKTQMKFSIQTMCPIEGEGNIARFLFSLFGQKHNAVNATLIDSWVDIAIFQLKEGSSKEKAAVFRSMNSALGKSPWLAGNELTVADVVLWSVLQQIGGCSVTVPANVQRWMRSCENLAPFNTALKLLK

[8] = target: T8, HeLa cell extract proteins (Homo sapiens, UniProt Q96T76)
T8 construct: endogenous in cells; host or cells: HeLa cell extract
T8 sequence (Q96T76 1-1030): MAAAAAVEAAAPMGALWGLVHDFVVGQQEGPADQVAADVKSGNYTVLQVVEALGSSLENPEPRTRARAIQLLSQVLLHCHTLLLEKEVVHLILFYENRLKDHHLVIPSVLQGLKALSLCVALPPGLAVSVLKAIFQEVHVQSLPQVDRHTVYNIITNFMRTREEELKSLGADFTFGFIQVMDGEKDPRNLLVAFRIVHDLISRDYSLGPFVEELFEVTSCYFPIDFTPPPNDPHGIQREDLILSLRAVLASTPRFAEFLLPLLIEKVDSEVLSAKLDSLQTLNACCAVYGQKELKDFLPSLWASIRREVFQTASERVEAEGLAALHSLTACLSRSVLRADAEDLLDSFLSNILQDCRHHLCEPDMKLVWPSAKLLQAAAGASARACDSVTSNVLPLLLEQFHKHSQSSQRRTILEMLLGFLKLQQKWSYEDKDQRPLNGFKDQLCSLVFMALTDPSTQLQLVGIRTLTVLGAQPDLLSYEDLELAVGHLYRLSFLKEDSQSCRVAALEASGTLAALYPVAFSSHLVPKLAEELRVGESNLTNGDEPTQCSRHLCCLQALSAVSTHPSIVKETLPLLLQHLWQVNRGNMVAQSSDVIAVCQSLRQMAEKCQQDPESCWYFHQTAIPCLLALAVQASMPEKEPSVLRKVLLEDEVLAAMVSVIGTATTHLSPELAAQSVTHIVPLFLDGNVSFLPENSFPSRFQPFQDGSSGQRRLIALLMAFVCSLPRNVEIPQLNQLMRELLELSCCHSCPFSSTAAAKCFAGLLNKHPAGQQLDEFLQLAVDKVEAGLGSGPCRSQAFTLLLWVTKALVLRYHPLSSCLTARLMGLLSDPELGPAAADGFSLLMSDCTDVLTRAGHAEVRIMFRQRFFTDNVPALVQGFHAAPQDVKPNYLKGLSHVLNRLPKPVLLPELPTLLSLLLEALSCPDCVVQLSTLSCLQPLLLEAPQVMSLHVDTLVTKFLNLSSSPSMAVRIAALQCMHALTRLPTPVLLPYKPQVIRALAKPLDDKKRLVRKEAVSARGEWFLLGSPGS

[9] = target: T9, HeLa cell extract proteins (Homo sapiens, UniProt Q9UL46)
T9 construct: endogenous in cells; host or cells: HeLa cell extract

[10] = HeLa, protein B2M (CDNA FLJ57067, HIGHLY SIMILAR TO BETA-2-MICROGLOBULIN)
[11] = HeLa, protein ASS1 (ARGININOSUCCINATE SYNTHASE.)

T6 sequence (P61769 21-119): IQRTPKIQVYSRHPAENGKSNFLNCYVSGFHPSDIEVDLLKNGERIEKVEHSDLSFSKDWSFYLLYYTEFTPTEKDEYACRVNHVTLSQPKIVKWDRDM
T9 sequence (Q9UL46 whole entry): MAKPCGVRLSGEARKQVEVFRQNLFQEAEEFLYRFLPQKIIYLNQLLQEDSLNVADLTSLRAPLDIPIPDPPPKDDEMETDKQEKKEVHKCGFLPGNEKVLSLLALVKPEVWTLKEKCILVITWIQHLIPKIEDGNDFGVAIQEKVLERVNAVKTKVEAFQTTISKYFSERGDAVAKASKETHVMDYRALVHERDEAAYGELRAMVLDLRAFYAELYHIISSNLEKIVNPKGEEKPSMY
T2 sequence (O43143 whole entry): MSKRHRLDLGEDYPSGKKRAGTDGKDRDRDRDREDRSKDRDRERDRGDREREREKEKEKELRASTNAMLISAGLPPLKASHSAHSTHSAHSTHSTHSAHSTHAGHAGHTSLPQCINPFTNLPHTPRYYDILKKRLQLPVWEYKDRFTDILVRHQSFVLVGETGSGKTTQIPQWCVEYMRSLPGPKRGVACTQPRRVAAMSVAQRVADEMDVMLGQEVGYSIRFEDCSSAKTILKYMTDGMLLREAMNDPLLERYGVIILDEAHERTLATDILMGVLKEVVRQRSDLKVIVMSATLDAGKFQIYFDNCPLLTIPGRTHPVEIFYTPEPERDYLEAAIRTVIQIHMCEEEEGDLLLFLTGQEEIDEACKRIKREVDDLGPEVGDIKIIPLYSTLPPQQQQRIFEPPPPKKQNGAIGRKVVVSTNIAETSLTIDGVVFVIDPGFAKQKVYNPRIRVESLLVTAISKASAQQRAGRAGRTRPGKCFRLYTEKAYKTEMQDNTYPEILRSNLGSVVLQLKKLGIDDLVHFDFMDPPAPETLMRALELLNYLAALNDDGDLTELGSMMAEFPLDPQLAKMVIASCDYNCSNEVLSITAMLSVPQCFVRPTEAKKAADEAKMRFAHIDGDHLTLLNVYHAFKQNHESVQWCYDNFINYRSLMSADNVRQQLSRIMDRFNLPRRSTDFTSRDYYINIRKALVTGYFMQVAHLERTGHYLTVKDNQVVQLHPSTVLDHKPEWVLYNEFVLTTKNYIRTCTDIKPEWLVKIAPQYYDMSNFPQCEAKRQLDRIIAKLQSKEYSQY
T5 sequence (P41091 whole entry): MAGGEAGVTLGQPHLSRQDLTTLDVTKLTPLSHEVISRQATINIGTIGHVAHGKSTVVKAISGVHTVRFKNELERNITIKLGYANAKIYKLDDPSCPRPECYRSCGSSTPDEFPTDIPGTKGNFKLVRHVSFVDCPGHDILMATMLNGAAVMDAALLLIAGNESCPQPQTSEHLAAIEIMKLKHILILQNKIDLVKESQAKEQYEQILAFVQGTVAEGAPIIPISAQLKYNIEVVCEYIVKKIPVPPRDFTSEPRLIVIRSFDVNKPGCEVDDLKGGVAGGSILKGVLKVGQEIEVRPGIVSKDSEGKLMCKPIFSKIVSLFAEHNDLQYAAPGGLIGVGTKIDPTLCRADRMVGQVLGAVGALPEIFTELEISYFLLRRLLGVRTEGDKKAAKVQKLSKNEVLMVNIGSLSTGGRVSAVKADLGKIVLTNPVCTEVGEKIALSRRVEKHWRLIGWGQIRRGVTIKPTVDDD

SMILES | fold changes relative to vehicle control ([1]; HeLa, protein NME4) | fold changes relative to vehicle control ([2]; protein DHX15, HeLa) | fold changes relative to vehicle control ([3]; HeLa, protein ASS1) | fold changes relative to vehicle control ([4]; HeLa, captured protein PSMA4) | fold changes relative to vehicle control ([5]; protein EIF2S3, HeLa) | fold changes relative to vehicle control [6, 10] | fold changes relative to vehicle control ([7]; HeLa, captured protein JTV1) | fold changes relative to vehicle control ([8]; HeLa, protein MMS19) | fold changes relative to vehicle control ([9]; HeLa, protein PSME2) | fold changes relative to vehicle control ([2]; captured protein DHX15, HeLa) | fold changes relative to vehicle control ([4]; protein PSMA4, HeLa) | fold changes relative to vehicle control ([6]; protein B2M, HeLa) | fold changes relative to vehicle control ([7]; captured protein JTV1, HeLa) | fold changes relative to vehicle control ([8]; captured protein MMS19, HeLa) | fold changes relative to vehicle control ([9]; protein PSME2, HeLa) | also measured
Nc1nc2c(c(=O)[nH]1)N(C=O)C(CNc1ccc(C(=O)N[C@@H](CCC(=O)O)C(=O)O)cc1)CN2 (stereo partly drawn) [LEU, leucovorin] | 1.04 | 0.74 | 1.03 | 1.05 | 0.81 | 1.24 | 1.04 | 0.87 | 0.94 |  |  |  |  |  |  | 
Nc1nc2[nH]cc(CCc3ccc(C(=O)N[C@@H](CCC(=O)O)C(=O)O)cc3)c2c(=O)[nH]1 [PTX, pemetrexed] |  |  |  |  |  |  |  |  |  |  |  |  |  |  |  | fold changes relative to vehicle control [1]: 0.81; fold changes relative to vehicle control [2]: 0.71; fold changes relative to vehicle control [3]: 1.23; fold changes relative to vehicle control [4]: 1.02; fold changes relative to vehicle control [5]: 0.87; fold changes relative to vehicle control [6]: 1.51; fold changes relative to vehicle control [7]: 0.9; fold changes relative to vehicle control [8]: 0.82; fold changes relative to vehicle control [9]: 0.9
CCCCCCOc1ccc(Cc2cnc(N)nc2N)cc1 [compound 1] | 0.97 |  |  |  | 1.07 |  |  |  |  | 0.71 | 1.1 | 1.14 | 1.04 | 0.79 | 1.01 | fold changes relative to vehicle control [3, 11]: 1.53 fold
CCCCCCOc1cccc(Cc2cnc(N)nc2N)c1 [compound 2] | 0.92 |  |  |  | 1.13 |  |  |  |  | 0.9 | 1.19 | 1.16 | 1.16 | 0.94 | 1.38 | fold changes relative to vehicle control [3, 11]: 2.2 fold
Nc1nc2cccc(-c3ccccc3)c2n1Cc1ccc(Cl)c(Cl)c1 [compound 3] | 0.96 |  |  |  | 1.06 |  |  |  |  | 0.62 | 1.06 | 1.07 | 0.89 | 1.02 | 0.93 | fold changes relative to vehicle control ([3]; HeLa, protein ASS1 (ARGININ[…].)): 0.97 fold
NCCOCCOCC(=O)Nc1nc2ncc(CNc3ccc(C(=O)NC(CCC(=O)O)C(=O)O)cc3)nc2c(=O)[nH]1 (stereo not drawn) [compound 6] | 0.81 | 0.83 | 1.43 | 1.06 | 1.07 | 1.37 | 0.89 | 0.97 | 0.95 |  |  |  |  |  |  | 
NCCCNc1ccc(C(=O)NC(CCC(=O)O)C(=O)O)cc1 (stereo not drawn) [compound 7] | 0.98 | 0.75 | 1.01 | 1.03 | 1 | 1.31 | 0.85 | 1.02 | 0.89 |  |  |  |  |  |  | 
